Holding throughout (experiment): growth of human tumour cells (NCI), 48 h
Assay [1] concerns A498 renal.
Assay [2] has as its system DU-145 prostate.
In assay [3] the test system is HOP-62 NSCLC.
Assay [4] concerns HT29 colon.
The subject of assay [5] is IGROV1 ovarian.
The subject of assay [6] is MDA-MB-435.
In assay [7] the test system is MOLT-4 leukemia.
For assay [8], the system named is NCI-H226 lung.
The subject of assay [9] is NCI/ADR-RES ovarian.
Assay [10] relates to OVCAR-3 ovarian.
Assay [11] has as its system OVCAR-4 ovarian.
The subject of assay [12] is OVCAR-5 ovarian.
For assay [13], the system named is RXF 393 renal.
Assay [14] concerns SF-268 CNS.
Assay [15] concerns SF-539 CNS.
For assay [16], the system named is SK-MEL-28 melanoma.
The test system of assay [17] is SK-OV-3 ovarian.
The test system of assay [18] is SR leukemia.
Assay [19] relates to TK-10 renal.
Assay [20] deals with U251 CNS.

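Briefly, cells in 96-well plates were exposed to five compound concentrations for 48 h, and endpoints were estimated by linear interpolation. The concentration for full growth arrest is given as TGI.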 A value given as a limit tells only on which side of the number the result lay.

Eleven molecules from PubChem BioAssay (NCI) can be followed below.

As to `CCOC(=O)CC(=O)CSc1c(-c2ccccc2)c(=O)n(-c2ccccc2)c(=S)n1-c1ccccc1`, the TGI in assay [1], in assay [2], in [3], in assay [4], in assay [5] and in assay [6] was > 100 µM in each case. Besides, the TGI in [7], in [8], in assay [9], in [10], in [11] and in assay [12] was > 100 µM each time. Moreover, the TGI in assay [13], in assay [14], in assay [15], in assay [16], in assay [17] and in assay [18] was > 100 µM in each case. Besides, the TGI in assay [19] and in assay [20] was > 100 µM each time.

With `O=C1CSC(c2ccccc2O)N1c1nc2cc3sc(N4C(=O)CSC4c4ccccc4O)nc3cc2s1` (stereo not given), the TGI in [1], in assay [2], in assay [3], in [4], in [5] and in [6] was > 100 µM each time. Moreover, the TGI was > 100 µM in assay [7]; > 88.1 µM in [8]; > 100 µM in assay [9]; > 100 µM in [10]; > 100 µM in assay [11]; > 100 µM in [12]. The TGI in assay [13], in assay [14], in assay [15], in assay [16], in assay [17] and in assay [18] was > 100 µM throughout. Moreover, the TGI in assay [19] and in assay [20] was > 100 µM throughout.

Take `CC(C)(C)OC(=O)NC(CS(=O)(=O)O)C(=O)O` (stereo not given): the TGI in assay [1], in [2], in [3], in assay [4], in assay [5] and in [6] was > 100 µM each time. For the same molecule, the TGI in assay [7], in assay [8], in [9], in assay [10], in assay [11] and in [12] was > 100 µM each time. Besides, the TGI in [13], in [14], in assay [15], in assay [16], in [17] and in assay [18] was > 100 µM each time. Moreover, the TGI in [19] and in [20] was > 100 µM in each case.

On to `O=c1c2ccccc2nc2sc(/N=C/C=C/c3ccccc3)nn12`, for which the TGI in [1], in assay [2], in assay [3], in assay [4], in assay [5] and in assay [6] was > 100 µM each time. Moreover, the TGI in [7], in assay [8], in assay [9], in assay [10], in assay [11] and in [12] was > 100 µM in each case. The TGI in assay [13], in [14], in [15], in assay [16], in [17] and in assay [18] was > 100 µM in each case. The TGI in assay [19] and in assay [20] was > 100 µM each time.

Take `CC(=O)N(CCCCNC(=O)C(F)(F)F)CCCNC(=O)C(F)(F)F`: the TGI in assay [1], in [2], in assay [3], in [4], in assay [5] and in assay [6] was > 100 µM in each case. The TGI in [7], in [8], in assay [9], in assay [10], in assay [11] and in [12] was > 100 µM each time. Moreover, the TGI in [13], in [14], in assay [15], in [16], in assay [17] and in assay [18] was > 100 µM in each case. Further, the TGI in assay [19] and in assay [20] was > 100 µM in each case.

For `CCc1ccc(/C=C/C(=O)C2CN(CC)CCC2(O)/C=C/c2ccc(CC)cc2)cc1` (stereo not given), the TGI is 23.1 µM in [1]; 21.6 µM in assay [2]; 3.54 µM in assay [3]; 3.79 µM in assay [4]; 4.35 µM in assay [5]; 4.07 µM in assay [6]. Also, the TGI stood at 6.03 µM in assay [7]; 20.1 µM in [8]; 12.4 µM in assay [9]; 3.3 µM in assay [10]; 14.7 µM in [11]; 9.69 µM in [12]. The TGI in [13] was 8.43 µM; in assay [14], 12 µM; in assay [15], 6 µM; in assay [16] it was 3.04 µM; in assay [17] it was 25 µM; in assay [18], 3.99 µM. Also, the TGI amounted to 5.54 µM in assay [19] and 3.41 µM in assay [20].

For the molecule `c1ccc2c3nnc(c2c1)SCCCSc1nnc(c2ccccc12)SCCCS3`, the TGI in assay [1] is > 100 µM; in assay [2] it was > 100 µM; in assay [3] it was 52.8 µM; in [4] it was > 100 µM; in [5], > 100 µM; in [6], > 100 µM. For the same molecule, the TGI in assay [7] was > 100 µM; in assay [8], 56.6 µM; in assay [9] it was 86.4 µM; in assay [10], > 100 µM; in assay [11], 54.3 µM; in assay [12] it was > 100 µM. The TGI in assay [13] is 94 µM; in assay [14], > 100 µM; in [15] it was 28.3 µM; in assay [16], > 100 µM; in assay [17], > 100 µM; in assay [18], > 100 µM. The TGI in [19] and in [20] was > 100 µM each time.

For the molecule `COc1ccc(/C=C2\CCC(Cc3ccccc3)(CN(C)C)C2=O)cc1` (stereo not given), the TGI is > 100 µM in assay [1]; > 100 µM in assay [2]; > 100 µM in assay [3]; > 87.8 µM in assay [4]; > 100 µM in assay [5]; > 100 µM in [6]. For the same molecule, the TGI in assay [7] was > 81.2 µM; in assay [8], > 96.3 µM; in [9], > 100 µM; in [10] it was > 100 µM; in [11], > 100 µM; in [12], > 100 µM. Besides, the TGI is > 72.9 µM in assay [13]; > 100 µM in assay [14]; > 100 µM in assay [15]; > 100 µM in [16]; > 100 µM in assay [17]; 54 µM in assay [18]. In addition, the TGI in [19] and in assay [20] was > 100 µM each time.

On to `COc1ccc2c(c1)CCc1c-2n(CCN2CCOCC2)c2ccc(OC)cc12`, for which the TGI in assay [1] is > 100 µM; in assay [2], > 100 µM; in assay [3] it was > 100 µM; in assay [4] it was 53.6 µM; in assay [5], > 100 µM; in assay [6] it was > 100 µM. The TGI was 41.1 µM in [7]; > 100 µM in assay [8]; > 100 µM in assay [9]; > 100 µM in assay [10]; > 100 µM in assay [11]; > 100 µM in assay [12]. Besides, the TGI in assay [13] is > 100 µM; in assay [14] it was > 100 µM; in assay [15], > 100 µM; in assay [16], > 100 µM; in assay [17], > 100 µM; in assay [18], 34.8 µM. Also, the TGI in assay [19] and in assay [20] was > 100 µM throughout.

In the case of `COc1ccc(C(=C2C(=O)N(c3ccccc3)C(=O)C2=C(C)C)c2ccc(OC)cc2)cc1`, the TGI in assay [1] is 16 µM; in [2], > 58 µM; in assay [3] it was > 66.2 µM; in [4], 20.2 µM; in assay [5], > 36.6 µM; in [6], 4.9 µM. Further, the TGI is > 39.7 µM in assay [7]; > 54 µM in assay [8]; > 100 µM in [9]; > 100 µM in [10]; > 29.3 µM in assay [11]; > 58.6 µM in assay [12]. The TGI was 5.9 µM in assay [13]; > 34.3 µM in [14]; > 24.2 µM in assay [15]; 20.7 µM in assay [16]; > 56.1 µM in assay [17]; > 100 µM in assay [18]. For the same molecule, the results for the TGI in [19] and in [20] were > 47.5 µM and > 46.1 µM, respectively.

Consider `COC(=O)[C@@H]1COC(C(C)(C)C)N1C(=O)C(c1ccccc1)c1ccccc1` (stereo not given in full), for which the TGI in [1], in [2], in assay [3], in assay [4], in assay [5] and in assay [6] was > 100 µM in each case. The TGI in assay [7], in assay [8], in assay [9], in assay [10], in [11] and in assay [12] was > 100 µM each time. The TGI is 38.1 µM in [13]; > 100 µM in assay [14]; > 100 µM in assay [15]; > 100 µM in [16]; 88.4 µM in assay [17]; 33.9 µM in assay [18]. Moreover, the TGI in assay [19] and in assay [20] was > 100 µM in each case.
